Values quoted from earlier work in US20180256731A1, “NOVEL INSULIN ANALOG AND USE THEREOF” (HANMI PHARM. CO., LTD, priority 2013, published 2018).

Conditions: commercially available long-acting insulin

Row | Substance | lasting for (duration) [h]
1 | insulin detemir | 18 to 22
2 | insulin glargine | 20 to 22
